Assay results from PubChem BioAssay AID1963445 (Molecular Pharmacology Branch, DTP, NCI, 2024).
pIC50: −log10 of the molar value.

Test system: MCF7 complex spheroid growth, % test/control
Test: Anticancer human tumor MCF7 cell line growth inhibition [Asc];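 further: spheroids exposed to compounds for 7 days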;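 on viability, T/C: 100% = DMSO vehicle control wells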
Conditions: for viability, T/C: stronger effect = lower value
Method: Multicellular complex tumor spheroid response to apoptosis pathway targeting inhibitors Alrizomadlin, Pelcitoclax, and Dasminapant in combination with a variety of drugs and investigational agents in selected tumor cell lines
The MDM2 inhibitor alrizomadlin, the Bcl-2/Bcl-xL inhibitor pelcitoclax, and the IAPs inhibitor dasminapant were evaluated both individually and in combination with standard of care and investigational anticancer small molecules within a complex spheroid model of solid tumors. . Complex spheroids include a stromal component modeled by human endothelial cells (HUVEC) and fibroblasts modeled by human mesenchymal stem cells (MSCs). The concentration ranges selected for each drug and investigational agent were based upon clinically achievable concentrations if the clinical Cmax of the agent was known.
Compounds. The drugs and investigational agents: alrizomadlin (APG-115; NSC831270), pelcitoclax (APG-1252; NSC835773), dasminapant (APG-1387;NSC834197), TAK-243 (NSC785004), copanlisib (NSC809693), olaparib (NSC753686), talazoparib (NSC767125), cobimetinib (NSC 768068), eltanexor (KPT-8602, NSC 794443), abemaciclib (NSC 768073), sotorasib (NSC818433), adagrasib (NSC 831453), MRTX-1133 (NSC 836407), Iadademestat (ORY1001, NSC 806812), and RMC-4630 (NSC839698), were obtained from the NCI Developmental Therapeutics Program Chemical Repository. The FDA-approved anticancer drug set is available from the Developmental Therapeutics Program at https://dtp.cancer.gov/organization/dscb/obtaining/available plates.htm. […] The stock solutions were prepared in dimethyl sulfoxide (DMSO, Sigma-Aldrich, St. Louis, MO, cat. D2650) at 800-fold the tested concentration and stored at -70 degrees C prior to their use. All drugs and investigational agents were tested over a range starting from a high concentration at or near the clinical Cmax and decreasing in half-log increments. If the clinical Cmax for an agent had not been determined, the highest concentration tested was 10 microM.
The patient-derived cancer (PDC) cell lines include five colon adenocarcinomas: 186277-243-T-J2-PDC, 616215-338-R-J1-PDC, 439559-082-T-J2-PDC, 463943-066-T-J2-PDC, and 519858-162-T-J1-PDC; three pancreatic carcinomas: 323965-272-R-J2-PDC, 521955-158-R6-J3-PDC, and 521955-158-R2-J5-PDC; two uterine sarcomas: 327498-152-R-J2-PDC and 993429-296-R-J1-PDC; two rhabdomyosarcomas: 755483-174-R-J1-PDC and 772245-204-R-J1-PDC; two soft tissue sarcomas: 126254-015-R-J1-PDC and 494315-158-R-J1-PDC; two malignant fibrous histiocytomas: 317291-083-R-J1-PDC and 596521-263-R-J1-PDC; two breast carcinomas: 171881-019-R-J1-PDC and 885512-296-R-J2-PDC; and one ovarian carcinoma: 6556581-035-R-J-PDC were obtained from the NCI PDMR, (https://pdmr.cancer.gov). The established cell lines HSSY-2 synovial sarcoma (RRID:CVCL 8719), SYO-1 synovial sarcoma (RRID:CVCL_7146), MPNST malignant peripheral neural sheath tumor were obtained from the Sloan Kettering Institute. The following established cell lines were purchased from the American Type Culture Collection (ATCC, Manassas, VA), Sor the received from the NCI repository:, PANC-1 pancreatic carcinoma (CRL-1469, RRID:CVCL_0480), OVCAR-5 ovarian carcinoma (RRID:CVCL_1628), OVCAR-8 ovarian carcinoma (RRID:CVCL_1629), , MCF-7 breast carcinoma (CRL-12584, RRID:CVCL_0031), MDA-MB-231 breast carcinoma (CRL-12532, RRID:CVCL_0062), NCI-H1876 small cell lung carcinoma (CRL-5902, RRID:CVCL_1503), NCI-H510A small cell lung carcinoma (HTB-184, RRID:CVCL_1565), NCI-H1417 (CRL-5869, RRID:CVCL_1469), and NCI-H196 small cell lung carcinoma (CRL-5823, RRID:CVCL_1509). Dr. Peter Houghton (Greehey Children's Cancer Research Institute, University of Texas Health Science Center, San Antonio, TX) provided Rh-18 rhabdomyosarcoma (RRID:CVCL_1659). Pooled donor human umbilical vein endothelial cells (HUVEC, Lonza, cat. CC-2519) and human mesenchymal stem cells (hMSC, Lonza, cat. PT-2501) were purchased from Lonza (Walkersville, MD).
Cell Culture. […]

[1] = curve of first compound, second compound 0.00316 µM
[2] = curve of first compound, second compound 0.01 µM
[3] = curve of first compound, second compound 0.0316 µM
[4] = curve of first compound, second compound 0.1 µM
[5] = curve of first compound, second compound 0.316 µM
[6] = curve of first compound, second compound 1 µM
[7] = second compound 0.00316 µM, first compound 0.00316 µM
[8] = second compound 0.00316 µM, first compound 0.01 µM
[9] = second compound 0.00316 µM, first compound 0.0316 µM
[10] = second compound 0.00316 µM, first compound 0.1 µM
[11] = second compound 0.01 µM, first compound 0.00316 µM
[12] = second compound 0.01 µM, first compound 0.01 µM
[13] = second compound 0.01 µM, first compound 0.0316 µM
[14] = second compound 0.01 µM, first compound 0.1 µM
[15] = second compound 0.0316 µM, first compound 0.00316 µM
[16] = second compound 0.0316 µM, first compound 0.01 µM
[17] = second compound 0.0316 µM, first compound 0.0316 µM
[18] = second compound 0.0316 µM, first compound 0.1 µM
[19] = second compound 0.1 µM, first compound 0.00316 µM
[20] = second compound 0.1 µM, first compound 0.01 µM
[21] = second compound 0.1 µM, first compound 0.0316 µM
[22] = second compound 0.1 µM, first compound 0.1 µM
[23] = second compound 0.316 µM, first compound 0.00316 µM
[24] = second compound 0.316 µM, first compound 0.01 µM
[25] = second compound 0.316 µM, first compound 0.0316 µM
[26] = second compound 0.316 µM, first compound 0.1 µM
[27] = second compound 1 µM, first compound 0.00316 µM
[28] = second compound 1 µM, first compound 0.01 µM
[29] = second compound 1 µM, first compound 0.0316 µM
[30] = second compound 1 µM, first compound 0.1 µM

Work on `NC1CCC(NC2CC2c2ccccc2)CC1` (configuration not stated) + CNC(C)C(=O)NC1CN(S(=O)(=O)c2cccc(S(=O)(=O)N3CCC4CCC(C(=O)NC(c5ccccc5)c5ccccc5)N4C(=O)C(NC(=O)C(C)NC)C3)c2)CCC2CCC(C(=O)NC(c3ccccc3)c3ccccc3)N2C1=O yielded a pIC50 [1] greater than 9.50, a pIC50 [2] greater than 9.50 and a pIC50 [3] greater than 9.50. It also gave a pIC50 [4] greater than 9.50, a pIC50 [5] greater than 9.50 and a pIC50 [6] greater than 9.50. The viability, T/C (second compound 0.00316 µM, first compound 0.000316 µM) was 23.3%, the viability, T/C (second compound 0.00316 µM, first compound 0.001 µM) was 18.5% and the viability, T/C [7] was 16.4%. The viability, T/C [8] was 21.6%, the viability, T/C [9] was 18.2% and the viability, T/C [10] was 22.6%. The viability, T/C (second compound 0.01 µM, first compound 0.000316 µM) was 11.9%, the viability, T/C (second compound 0.01 µM, first compound 0.001 µM) was 12.3% and the viability, T/C [11] was 12.2%. The viability, T/C [12] was 10.7%, the viability, T/C [13] was 10.4% and the viability, T/C [14] was 10.8%. It also gave a viability, T/C (second compound 0.0316 µM, first compound 0.000316 µM) of 11.2%, a viability, T/C (second compound 0.0316 µM, first compound 0.001 µM) of 9.92% and a viability, T/C [15] of 10.8%. It also gave a viability, T/C [16] of 10.2%, a viability, T/C [17] of 10.9% and a viability, T/C [18] of 11.9%. The viability, T/C (second compound 0.1 µM, first compound 0.000316 µM) was 13.9%, the viability, T/C (second compound 0.1 µM, first compound 0.001 µM) was 12.6% and the viability, T/C [19] was 12.5%. The viability, T/C [20] was 10.5%, the viability, T/C [21] was 13.6% and the viability, T/C [22] was 13.8%. It also gave a viability, T/C (second compound 0.316 µM, first compound 0.000316 µM) of 11.4%, a viability, T/C (second compound 0.316 µM, first compound 0.001 µM) of 16.8% and a viability, T/C [23] of 16.9%. It also gave a viability, T/C [24] of 15.8%, a viability, T/C [25] of 12% and a viability, T/C [26] of 14.2%. It also gave a viability, T/C (second compound 1 µM, first compound 0.000316 µM) of 13.1%, a viability, T/C (second compound 1 µM, first compound 0.001 µM) of 12.3% and a viability, T/C [27] of 13.9%. It also gave a viability, T/C [28] of 15.8%, a viability, T/C [29] of 15% and a viability, T/C [30] of 10.2%.
In the case of `O=C(c1ccc(F)c(F)c1Nc1ccc(I)cc1F)N1CC(O)([C@@H]2CCCCN2)C1` + CNC(C)C(=O)NC1CN(S(=O)(=O)c2cccc(S(=O)(=O)N3CCC4CCC(C(=O)NC(c5ccccc5)c5ccccc5)N4C(=O)C(NC(=O)C(C)NC)C3)c2)CCC2CCC(C(=O)NC(c3ccccc3)c3ccccc3)N2C1=O, the pIC50 [1] was greater than 8.50, the pIC50 [2] was greater than 8.50 and the pIC50 [3] was greater than 8.50. The pIC50 [4] was greater than 8.50, the pIC50 [5] was greater than 8.50 and the pIC50 [6] was greater than 8.50. The viability, T/C [7] was 38.1%, the viability, T/C [8] was 41.5% and the viability, T/C [9] was 34.6%. The viability, T/C [10] was 26%, the viability, T/C (second compound 0.00316 µM, first compound 0.316 µM) was 19.4% and the viability, T/C (second compound 0.00316 µM, first compound 1 µM) was 12.3%. The viability, T/C [11] was 17.3%, the viability, T/C [12] was 14.8% and the viability, T/C [13] was 17.2%. The viability, T/C [14] was 12.9%, the viability, T/C (second compound 0.01 µM, first compound 0.316 µM) was 12.9% and the viability, T/C (second compound 0.01 µM, first compound 1 µM) was 11.6%. For the same molecule, the viability, T/C [15] was 14.8%, the viability, T/C [16] was 15.4% and the viability, T/C [17] was 13.3%. The viability, T/C [18] was 16.4%, the viability, T/C (second compound 0.0316 µM, first compound 0.316 µM) was 10.7% and the viability, T/C (second compound 0.0316 µM, first compound 1 µM) was 10.2%. For the same molecule, the viability, T/C [19] was 13.2%, the viability, T/C [20] was 13.5% and the viability, T/C [21] was 14.4%. The viability, T/C [22] was 12.3%, the viability, T/C (second compound 0.1 µM, first compound 0.316 µM) was 13.8% and the viability, T/C (second compound 0.1 µM, first compound 1 µM) was 9.72%. The viability, T/C [23] was 13.3%, the viability, T/C [24] was 14.3% and the viability, T/C [25] was 15.9%. For the same molecule, the viability, T/C [26] was 12.5%, the viability, T/C (second compound 0.316 µM, first compound 0.316 µM) was 11.6% and the viability, T/C (second compound 0.316 µM, first compound 1 µM) was 12.4%. For the same molecule, the viability, T/C [27] was 14.6%, the viability, T/C [28] was 13.8% and the viability, T/C [29] was 12.4%. It also gave a viability, T/C [30] of 12.9%, a viability, T/C (second compound 1 µM, first compound 0.316 µM) of 13% and a viability, T/C (second compound 1 µM, first compound 1 µM) of 13.2%.
`Cc1c(S(C)(=O)=O)c(-c2cc(F)cc(N3CCN(c4ccc(NS(=O)(=O)c5ccc(NC(CCN6CCC(C(=O)OCCCP(=O)(O)O)CC6)CSc6ccccc6)c(S(=O)(=O)C(F)(F)F)c5)cc4)CC3)c2)c(-c2ccc(Cl)cc2)n1C(C)C` (configuration not stated) was tested, and the viability, T/C (compound 0.0316 µM) was 90.5% [middle of 7 runs], the viability, T/C (compound 10 µM) was 166% [middle of 7 runs] and the pIC50 (compound alone, run of 11/07/2022) was less than 5.00.
